Test results from ChEMBL document CHEMBL5537113, “Discovery of 1,2-diaryl-3-oxopyrazolidin-4-carboxamides as a new class of MurA enzyme inhibitors and characterization of their antibacterial activity” (Eur J Med Chem, 2023).

Assays:
Staphylococcus aureus [1] = test: Antibacterial activity against methicillin resistant Staphylococcus aureus USA300 assessed as reduction in microbial growth by CLSI based broth microdilution method; format: functional
Staphylococcus aureus [2] = test: Antibacterial activity against methicillin sensitive Staphylococcus aureus NRS107 assessed as reduction in microbial growth by CLSI based broth microdilution method; format: functional
Streptococcus pneumoniae = test: Antibacterial activity against Streptococcus pneumoniae ATCC 700677 assessed as reduction in microbial growth by CLSI based broth microdilution method; format: functional
Clostridioides difficile [3] = test: Antibacterial activity against Clostridioides difficile NR-32889 assessed as reduction in microbial growth incubated for 48 hrs by broth microdilution method; format: functional
Staphylococcus aureus [4] = test: Antibacterial activity against methicillin resistant Staphylococcus aureus NRS119 assessed as reduction in microbial growth by CLSI based broth microdilution method; format: functional
Clostridioides difficile [5] = test: Antibacterial activity against Clostridioides difficile NR-49277 assessed as reduction in microbial growth incubated for 48 hrs by broth microdilution method; format: functional
Clostridioides difficile [6] = test: Antibacterial activity against Clostridioides difficile ATCC 43255 assessed as reduction in microbial growth incubated for 48 hrs by broth microdilution method; format: functional
Staphylococcus aureus [7] = test: Antibacterial activity against Staphylococcus aureus Newman D2C NCTC 10833 assessed as reduction in microbial growth incubated for 16 hrs by serial dilution method; format: functional
Clostridioides difficile [8] = test: Bactericidal activity against Clostridioides difficile NR-32904 assessed as reduction in microbial growth by broth microdilution method; format: functional
Lactobacillus gasseri = test: Antibacterial activity against Lactobacillus gasseri HM 407 assessed as reduction in microbial growth incubated for 48 hrs by broth microdilution method; format: functional
Staphylococcus aureus [9] = test: Antibacterial activity against vancomycin resistant Staphylococcus aureus 10 assessed as reduction in microbial growth by CLSI based broth microdilution method; format: functional
Caco-2 [10] = test: Cytotoxicity against human Caco-2 cells assessed as reduction in cell viability at > 128 ug/ml after 24 hrs by MTS assay; format: toxicity, cell-based; conditions: caco-2, 24 h, dose > 128 µg/ml
Clostridioides difficile [11] = test: Selectivity ratio of MBC for antibacterial activity against Clostridioides difficile NR-49278 to MIC for antibacterial activity against Clostridioides difficile NR-49278; format: functional
Clostridioides difficile [12] = test: Antibacterial activity against Clostridioides difficile NR-49285 assessed as reduction in microbial growth incubated for 48 hrs by broth microdilution method; format: functional
Clostridioides difficile [13] = test: Selectivity ratio of MBC for antibacterial activity against Clostridioides difficile ATCC 43255 to MIC for antibacterial activity against Clostridioides difficile […]; format: functional
[14] = tested on: UDP-N-acetylglucosamine 1-carboxyvinyltransferase (Escherichia coli K-12), P0A749 [C115D]; test: Inhibition of Escherichia coli MurA C115D mutant using UNAG as substrate pre incubated for 15 mins followed by substrate addition and measured after 15 mins by microplate reader analysis; conditions: time 30.0 min
Caco-2 [15] = test: Cytotoxicity against human Caco-2 cells assessed as reduction in cell viability at 64 ug/ml after 24 hrs by MTS assay; format: toxicity, cell-based; conditions: caco-2, 24 h, dose 64 µg/ml
[16] = Drug uptake in Escherichia coli harboring tolC deletion mutant at 10 uM incubated for 30 mins by LC analysis; format: ADME; conditions: 0.5 h
[17] = Drug uptake in Escherichia coli harboring tolC deletion mutant assessed per 1.6x10^9 cells at 10 uM incubated for 30 mins by LC analysis; format: ADME; conditions: 0.5 h
[18] = target: UDP-N-acetylglucosamine 1-carboxyvinyltransferase (Escherichia coli K-12, UniProt P0A749, C115D); test: Inhibition of Escherichia coli MurA C115D mutant at 50 uM using UNAG as substrate pre incubated for 15 mins followed by substrate addition and measured after 15 mins by microplate reader analysis relative to control
UDP-N-acetylglucosamine 1-carboxyvinyltransferase, sequence (P0A749 whole entry C115D): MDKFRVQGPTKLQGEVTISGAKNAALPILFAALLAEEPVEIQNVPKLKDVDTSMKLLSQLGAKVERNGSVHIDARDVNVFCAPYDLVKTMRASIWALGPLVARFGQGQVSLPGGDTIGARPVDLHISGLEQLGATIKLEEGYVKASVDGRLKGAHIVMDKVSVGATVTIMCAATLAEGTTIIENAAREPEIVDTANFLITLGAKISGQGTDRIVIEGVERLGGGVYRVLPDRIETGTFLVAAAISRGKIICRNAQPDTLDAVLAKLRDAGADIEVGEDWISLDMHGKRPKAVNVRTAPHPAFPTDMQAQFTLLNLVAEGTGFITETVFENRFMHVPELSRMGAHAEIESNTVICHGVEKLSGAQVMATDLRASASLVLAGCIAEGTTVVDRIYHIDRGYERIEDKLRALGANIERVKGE

UDP-N-acetylglucosamine 1-carboxyvinyltransferase (Escherichia coli K-12), P0A749 [C115D], sequence (P0A749 whole entry C115D): as above

Compound | MIC (Staphylococcus aureus [1]) [µg/mL] | MIC (Staphylococcus aureus [2]) [µg/mL] | MIC (Streptococcus pneumoniae) [µg/mL] | MIC (Clostridioides difficile [3]) [µg/mL] | MIC (Staphylococcus aureus [4]) [µg/mL] | MIC (Clostridioides difficile [5]) [µg/mL] | MIC (Clostridioides difficile [6]) [µg/mL] | MIC (Staphylococcus aureus [7]) [µM] | MBC (Clostridioides difficile [8]) [µg/mL] | MIC (Lactobacillus gasseri) [µg/mL] | MIC (Staphylococcus aureus [9]) [µg/mL] | Activity (Caco-2 [10]) | Ratio (Clostridioides difficile [11]) | MIC (Clostridioides difficile [12]) [µg/mL] | Ratio (Clostridioides difficile [13]) | inhibition [14] [%] | Activity (Caco-2 [15]) | Drug uptake [16] [nM] | Drug uptake [17] [µM] | IC50 [18] [µM]
O=C(Nc1ncc([N+](=O)[O-])s1)C1CN(c2ccc(Cl)cc2)N(c2ccc(Cl)cc2)C1=O (centres undefined) | 32 | 64 | 64 | 0.25 | 64 | 1 | 0.25 | 10 | 1 | > 64 | > 64 | Non-Toxic | 1 | 1 | 1 | – | – | – | – | –
O=C(Nc1ncc([N+](=O)[O-])s1)C1CN(c2cccc(Cl)c2)N(c2cccc(Cl)c2)C1=O (centres undefined) | 4 | 2 | 4 | 0.5 | 1 | 0.5 | 0.125 | 10 | 1 | > 64 | 4 | – | 1 | 0.5 | 1 | 76 | Non-Toxic | 56 | 1.8 | 10.9
